Measured values as given in patent publication US8975398B2, “NAMPT inhibitors” (AbbVie Inc., priority 2012, dated 2015).

tested on: PC3 cells; test: NAMPT Cell Proliferation Assay (Cell Titer Glo; also performed in the presence of 0.3 mM nicotinamide mononucleotide); assay type: cell-based; conditions: Homo sapiens, PC-3, 120 h, 5 days incubation, cell viability by Cell Titer Glo
Procedure, shortened: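 Proliferation of PC3 cells treated 5 days with a 10-fold compound series (top 10 μM) was quantified by Cell Titer Glo luminescence; IC50s were fitted from percent inhibition.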

Row | Compound | IC50 [nM]
1 | CC(C)(C)Cn1cc(-c2ccc(NC(=O)C3CN(c4cccnn4)C3)cn2)cn1 [Example 924, N-{6-[1-(2,2-dimethylpropyl)-1H-pyrazol-4-yl]pyridin-3-yl}-1-(pyridazin-3-yl)azetidine-3-carboxamide] | 1.17
2 | Cc1ccc(N2CC(C(=O)Nc3ccc(C4CCN(C(=O)c5ccccc5)CC4)cc3)C2)cn1 [Example 876, N-[4-(1-benzoylpiperidin-4-yl)phenyl]-1-(6-methylpyridin-3-yl)azetidine-3-carboxamide] | 29.2
3 | C=CCNC(=O)c1ccc(NC(=O)C2CN(c3cccnn3)C2)cc1 [Example 1012, N-[4-(prop-2-en-1-ylcarbamoyl)phenyl]-1-(pyridazin-3-yl)azetidine-3-carboxamide] | 782
4 | COCC(C)(C)CNC(=O)c1ccc(NC(=O)C2CN(c3cccnn3)C2)cc1 [Example 974, N-{4-[(3-methoxy-2,2-dimethylpropyl)carbamoyl]phenyl}-1-(pyridazin-3-yl)azetidine-3-carboxamide] | 7.84
5 | Cc1ccc(N2CC(C(=O)Nc3ccc(-c4cnn(CC5(C)CCOCC5)c4)cc3)C2)nn1 [Example 891, 1-(6-methylpyridazin-3-yl)-N-(4-{1-[(4-methyltetrahydro-2H-pyran-4-yl)methyl]-1H-pyrazol-4-yl}phenyl)azetidine-3-carboxamide] | 65.6
6 | CSCCC(=O)N1CCC(Cc2ccc(NC(=O)C3CN(c4cccnn4)C3)cc2)CC1 [Example 936, N-[4-({1-[3-(methylsulfanyl)propanoyl]piperidin-4-yl}methyl)phenyl]-1-(pyridazin-3-yl)azetidine-3-carboxamide] | 2.18
7 | CN1CCCC(NC(=O)c2ccc(NC(=O)C3CN(c4cccnn4)C3)cc2)C1 (stereo not drawn) [Example 998, N-{4-[(1-methylpiperidin-3-yl)carbamoyl]phenyl}-1-(pyridazin-3-yl)azetidine-3-carboxamide] | 1280
8 | CCC(=O)N1CCC(Cc2ccc(NC(=O)C3CN(c4cccnn4)C3)cc2)CC1 [Example 958, N-{4-[(1-propanoylpiperidin-4-yl)methyl]phenyl}-1-(pyridazin-3-yl)azetidine-3-carboxamide] | 2.63
9 | Cc1ccc(N2CC(C(=O)Nc3ccc(O[C@@H]4CCN(C(=O)c5ccc(F)cc5F)C4)cc3)C2)nn1 [Example 917, N-(4-{[(3R)-1-(2,4-difluorobenzoyl)pyrrolidin-3-yl]oxy}phenyl)-1-(6-methylpyridazin-3-yl)azetidine-3-carboxamide] | 101
10 | O=C(Nc1ccc(CC2CCN(C(=O)c3ccoc3)CC2)cc1)C1CN(c2cccnn2)C1 [Example 955, N-(4-{[1-(furan-3-ylcarbonyl)piperidin-4-yl]methyl}phenyl)-1-(pyridazin-3-yl)azetidine-3-carboxamide] | 5.97
11 | O=C(NC1CC1)c1ccc(NC(=O)C2CN(c3cccnn3)C2)cc1 [Example 1004, N-[4-(cyclopropylcarbamoyl)phenyl]-1-(pyridazin-3-yl)azetidine-3-carboxamide] | 7920
12 | O=C(NCc1ccccc1)c1ccc(NC(=O)C2CN(c3cccnn3)C2)cc1 [Example 1006, N-[4-(benzylcarbamoyl)phenyl]-1-(pyridazin-3-yl)azetidine-3-carboxamide] | 5.36
13 | CC1CC1C(=O)N1CCC(Cc2ccc(NC(=O)C3CN(c4cccnn4)C3)cc2)CC1 (stereo not drawn) [Example 931, N-[4-({1-[(2-methylcyclopropyl)carbonyl]piperidin-4-yl}methyl)phenyl]-1-(pyridazin-3-yl)azetidine-3-carboxamide] | 3.17
14 | O=C(NCC1CCC1)c1ccc(NC(=O)C2CN(c3cccnn3)C2)cc1 [Example 977, N-{4-[(cyclobutylmethyl)carbamoyl]phenyl}-1-(pyridazin-3-yl)azetidine-3-carboxamide] | 12.4
15 | O=C(Nc1ccc(CC2CCN(C(=O)c3ccccn3)CC2)cc1)C1CN(c2cccnn2)C1 [Example 954, 1-(pyridazin-3-yl)-N-(4-{[1-(pyridin-2-ylcarbonyl)piperidin-4-yl]methyl}phenyl)azetidine-3-carboxamide] | 6.38
16 | CN(CCNC(=O)c1ccc(NC(=O)C2CN(c3cccnn3)C2)cc1)c1ccccc1 [Example 982, N-[4-({2-[methyl(phenyl)amino]ethyl}carbamoyl)phenyl]-1-(pyridazin-3-yl)azetidine-3-carboxamide] | 83.5
17 | O=C(Nc1ccc(CC2CCN(C(=O)C3CCCO3)CC2)cc1)C1CN(c2cccnn2)C1 (stereo not drawn) [Example 944, 1-(pyridazin-3-yl)-N-(4-{[1-(tetrahydrofuran-2-ylcarbonyl)piperidin-4-yl]methyl}phenyl)azetidine-3-carboxamide] | 7.14
18 | O=C(N[C@H]1CCN(c2cccnn2)C1)c1ccc(C2CCN(C(=O)CC3CC3)CC2)s1 [Example 1018, 5-[1-(cyclopropylacetyl)piperidin-4-yl]-N-[(3S)-1-(pyridazin-3-yl)pyrrolidin-3-yl]thiophene-2-carboxamide] | 716
19 | CCCNC(=O)c1ccc(NC(=O)C2CN(c3cccnn3)C2)cc1 [Example 1008, N-[4-(propylcarbamoyl)phenyl]-1-(pyridazin-3-yl)azetidine-3-carboxamide] | 299
20 | CC(C)(C)CC(=O)N1CCC(c2ccc(NC(=O)C3CN(c4cccnn4)C3)cc2F)CC1 [Example 882, N-{4-[1-(3,3-dimethylbutanoyl)piperidin-4-yl]-3-fluorophenyl}-1-(pyridazin-3-yl)azetidine-3-carboxamide] | 6.43
21 | CCCC(C)C(=O)N1CCC(Cc2ccc(NC(=O)C3CN(c4cccnn4)C3)cc2)CC1 (stereo not drawn) [Example 934, N-(4-{[1-(2-methylpentanoyl)piperidin-4-yl]methyl}phenyl)-1-(pyridazin-3-yl)azetidine-3-carboxamide] | 2.45
22 | CCCCNC(=O)c1ccc(NC(=O)C2CN(c3cccnn3)C2)cc1 [Example 979, N-[4-(butylcarbamoyl)phenyl]-1-(pyridazin-3-yl)azetidine-3-carboxamide] | 72
23 | CC(C)C(=O)N1CCC(Cc2ccc(NC(=O)C3CN(c4cccnn4)C3)cc2)CC1 [Example 901, N-(4-{[1-(2-methylpropanoyl)piperidin-4-yl]methyl}phenyl)-1-(pyridazin-3-yl)azetidine-3-carboxamide] | 2.07

tested on: activated T cells; test: not given; conditions: Busso, N. et al. Plos One 3, e2267, 2008; cited from earlier work

Row | Compound | apoptosis of activated T cells | proliferation of activated T cells
24 | O=C(/C=C/c1cccnc1)NCCCCC1CCN(C(=O)c2ccccc2)CC1 [FK866] | induce apoptosis | selectively block proliferation

tested on: experimental autoimmune encephalomyelitis (EAE); test: not given; conditions: model of T-cell mediated autoimmune disorders; Bruzzone, S et al. Plos One 4, e7897, 2009; cited from earlier work

Row | Compound | manifestations of experimental autoimmune encephalomyelitis (EAE)
25 | O=C(/C=C/c1cccnc1)NCCCCC1CCN(C(=O)c2ccccc2)CC1 [FK866] | ameliorated the manifestations

tested on: collagen-induced arthritis; test: not given; conditions: Busso, N. et al. Plos One 3, e2267, 2008; cited from earlier work

Row | Compound | efficacy in animal models of arthritis (collagen-induced arthritis)
26 | O=C(/C=C/c1cccnc1)NCCCCC1CCN(C(=O)c2ccccc2)CC1 [FK866] | efficacious
